Experiments:
[1] = tested on: giant foxtail; assay: Test B pre/postemergence giant foxtail; type: in vivo, Setaria faberii; settings: for Giant foxtail plant response rating: scale of 0 to 10 where 0 is no effect and 10 is complete control
In short: (§1)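 Response is a visual 0-to-10 score relative to untreated plants, where 0 means no effect and 10 means complete control, taken twelve to sixteen days after application. Treatments went onto soil at planting and onto foliage of 1- to 4-leaf plants, using a surfactant-containing non-phytotoxic solvent.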

[2] = tested on: cocklebur; assay: Test B pre/postemergence cocklebur; type: in vivo, Xanthium strumarium; settings: for Cocklebur plant response rating: scale of 0 to 10 where 0 is no effect and 10 is complete control
In short: as §1

[3] = tested on: morningglory; assay: Test B pre/postemergence morningglory; type: in vivo, Ipomoea hederacea; settings: for Morningglory plant response rating: scale of 0 to 10 where 0 is no effect and 10 is complete control
In short: as §1

[4] = tested on: bedstraw; assay: Test B pre/postemergence bedstraw; type: in vivo, Galium aparine; settings: Preemergence; for Bedstraw plant response rating: scale of 0 to 10 where 0 is no effect and 10 is complete control
In short: as §1

[5] = tested on: velvetleaf; assay: Test B pre/postemergence velvetleaf; type: in vivo, Abutilon theophrasti; settings: for Velvetleaf plant response rating: scale of 0 to 10 where 0 is no effect and 10 is complete control
In short: as §1

[6] = tested on: surinam grass; assay: Test B pre/postemergence surinam grass; type: in vivo, Brachiaria decumbens
In short: as §1

[7] = tested on: pigweed; assay: Test B pre/postemergence pigweed; type: in vivo, Amaranthus retroflexus; settings: for Redroot pigweed plant response rating: scale of 0 to 10 where 0 is no effect and 10 is complete control
In short: as §1

[8] = tested on: duck salad; assay: Test B flood test duck salad; type: in vivo, Heteranthera limosa
In short: (§2)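 Plants were grown to the 2-leaf stage before treatment with test chemical, then held in a greenhouse for twelve to sixteen days. Injury was visually rated against untreated controls on a 0–10 scale, where 0 is no effect and 10 is complete control.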

[9] = tested on: bamyardgrass; assay: Test B flood test barnyardgrass; type: in vivo, Echinochloa crus-galli
In short: as §2

[10] = tested on: corn; assay: Test B pre/postemergence corn; type: in vivo, Zea mays; settings: for Corn plant response rating: scale of 0 to 10 where 0 is no effect and 10 is complete control
In short: as §1

[11] = tested on: soybean; assay: Test B pre/postemergence soybean; type: in vivo, Glycine max; settings: for Soybean plant response rating: scale of 0 to 10 where 0 is no effect and 10 is complete control
In short: as §1

[12] = tested on: smallflower flatsedge; assay: Test B flood test smallflower flatsedge; type: in vivo, Cyperus difformis
In short: as §2

[13] = tested on: blackgrass; assay: Test B pre/postemergence blackgrass; type: in vivo, Alopecurus myosuroides
In short: as §1

[14] = tested on: sugar beet; assay: Test B pre/postemergence sugar beet; type: in vivo, Beta vulgaris; settings: for Sugarbeets plant response rating: scale of 0 to 10 where 0 is no effect and 10 is complete control
In short: as §1

[15] = tested on: rape; assay: Test B pre/postemergence rape; type: in vivo, Brassica napus; settings: for Rape plant response rating: scale of 0 to 10 where 0 is no effect and 10 is complete control
In short: as §1

[16] = tested on: purple nutsedge; assay: Test B pre/postemergence purple nutsedge; type: in vivo, Cyperus rotundus; settings: for Nutsedge plant response rating: scale of 0 to 10 where 0 is no effect and 10 is complete control
In short: as §1

[17] = Postemergence, Rate 125 g/ha, scale 0 to 10, 0 is no effect, 10 is complete control
[18] = Preemergence, Rate 62 g/ha, scale 0 to 10 (0 no effect, 10 complete control)
[19] = Rate 500 g/ha, Postemergence, scale 0 to 10, 0 no effect, 10 complete control
[20] = Preemergence, Rate 250 g/ha, scale of 0 to 10 where 0 is no effect and 10 is complete control
[21] = Preemergence, Rate 500 g/ha, scale of 0 to 10 where 0 is no effect and 10 is complete control
[22] = Rate 62 g/ha, Postemergence, scale of 0 to 10 where 0 is no effect and 10 is complete control
[23] = Rate 250 g/ha, Postemergence, scale of 0 to 10 where 0 is no effect and 10 is complete control
[24] = Postemergence (flood test), Rate 125 g/ha, scale 0 to 10, 0 is no effect, 10 is complete control
[25] = Rate 62 g/ha, Postemergence (flood test species), scale of 0 to 10 where 0 is no effect and 10 is complete control
[26] = Rate 62 g/ha, flood test species, Pre-emergence, visual evaluation after twelve to sixteen days
[27] = Rate 125 g/ha, Pre-emergence, flood test species, scale 0 to 10 where 0 is no effect and 10 is complete control
[28] = Rate 250 g/ha, Pre-emergence, flood-test species, scale 0 to 10, 0 is no effect, 10 is complete control
[29] = Rate 500 g/ha, listed under Postemergence (flood test species), scale 0 to 10, 0 no effect, 10 complete control
[30] = Rate 500 g/ha, Pre-emergence, flood test species, scale 0 to 10 (0 no effect, 10 complete control)

CCC(CC)n1c(=O)on(C(=O)N(c2ccccc2)C(C)C)c1=O [Compound 354]
5: Plant response rating, Morningglory [3, 17] | Velvetleaf plant response rating (0 to 10 scale) ([5]; Preemergence, Rate 125 g/ha) | B. signalgrass plant response rating (0 to 10 scale, 0 is no effect, 10 is complete control) ([6]; Preemergence, Rate 125 g/ha) | B. signalgrass plant response rating [6, 20] | B. signalgrass plant response rating [6, 21] | Plant response rating, Redroot pigweed [7, 18] | Plant response rating, Ducksalad [8, 29] | Plant response rating, Soybean [11, 17] | S. Flatsedge plant response rating [12, 25] | Plant response rating, Blackgrass [13, 17] | Rape plant response rating ([15]; Preemergence, Rate 250 g/ha) | Rape plant response rating ([15]; Preemergence, Rate 500 g/ha)
2: Plant response rating, Velvetleaf [5, 19] | Plant response rating, B. signalgrass [6, 19] | Redroot pigweed plant response rating ([7]; Rate 62 g/ha, Postemergence) | Sugarbeets plant response rating ([14]; Preemergence, Rate 250 g/ha)
4: Plant response rating, Giant foxtail [1, 17] | Plant response rating, Barnyardgrass [9, 24] | Blackgrass plant response rating (0 to 10 scale) ([13]; Preemergence, Rate 125 g/ha) | Plant response rating, Rape [15, 19]
7: Velvetleaf plant response rating ([5]; Preemergence, Rate 500 g/ha) | Redroot pigweed plant response rating (0 to 10 scale) ([7]; Preemergence, Rate 125 g/ha) | Plant response rating, Redroot pigweed [7, 19] | Plant response rating, Barnyardgrass ([9]; Rate 250 g/ha, Postemergence (flood test species), scale of 0 to 10 where 0 is no effect and 10 is complete control) | Plant response rating, Soybean [11, 19] | Plant response rating, Blackgrass [13, 23]
9: Plant response rating, Giant foxtail [1, 19] | Plant response rating, Barnyardgrass [9, 29] | Plant response rating, S. Flatsedge [12, 29] | Blackgrass plant response rating [13, 21] | Plant response rating, Blackgrass [13, 19]
8: Plant response rating, Morningglory [3, 19] | Plant response rating, S. Flatsedge [12, 24] | Blackgrass plant response rating [13, 20]
10: Plant response rating, Giant foxtail [1, 18] | Giant foxtail plant response rating (0 to 10 scale) ([1]; Preemergence, Rate 125 g/ha) | Giant foxtail plant response rating ([1]; Preemergence, Rate 250 g/ha) | Giant foxtail plant response rating ([1]; Preemergence, Rate 500 g/ha) | Redroot pigweed plant response rating ([7]; Preemergence, Rate 250 g/ha) | Redroot pigweed plant response rating ([7]; Preemergence, Rate 500 g/ha)
1: Plant response rating, Cocklebur [2, 19] | Plant response rating, Velvetleaf [5, 18] | Plant response rating, B. signalgrass [6, 18] | Soybean plant response rating ([11]; Preemergence, Rate 500 g/ha) | Plant response rating, Sugarbeets [14, 17] | Rape plant response rating (0 to 10 scale) ([15]; Preemergence, Rate 125 g/ha)
0: Giant foxtail plant response rating ([1]; Rate 62 g/ha, Postemergence) | Plant response rating, Cocklebur [2, 17] | Plant response rating, Cocklebur [2, 18] | Cocklebur plant response rating (0 to 10 scale) ([2]; Preemergence, Rate 125 g/ha) | Cocklebur plant response rating ([2]; Preemergence, Rate 250 g/ha) | Cocklebur plant response rating ([2]; Rate 62 g/ha, Postemergence) | Plant response rating, Morningglory [3, 18] | Morningglory plant response rating (0 to 10 scale) ([3]; Preemergence, Rate 125 g/ha) | Morningglory plant response rating ([3]; Preemergence, Rate 250 g/ha) | Morningglory plant response rating ([3]; Preemergence, Rate 500 g/ha) | Morningglory plant response rating ([3]; Rate 62 g/ha, Postemergence) | Plant response rating, Bedstraw ([4]; Rate 62 g/ha, scale 0 to 10 (0 no effect, 10 complete control)) | Bedstraw plant response rating (0 to 10 scale) ([4]; Rate 125 g/ha) | Bedstraw plant response rating ([4]; Rate 250 g/ha) | Bedstraw plant response rating ([4]; Rate 500 g/ha) | Plant response rating, Velvetleaf [5, 17] | Velvetleaf plant response rating ([5]; Rate 62 g/ha, Postemergence) | Plant response rating, B. signalgrass [6, 17] | B. signalgrass plant response rating [6, 22] | Plant response rating, B. signalgrass [6, 23] | Ducksalad plant response rating [8, 25] | Plant response rating, Ducksalad (0 to 10 scale, 0 is no effect, 10 is complete control) [8, 26] | Ducksalad plant response rating [8, 27] | Ducksalad plant response rating [8, 28] | Ducksalad plant response rating [8, 30] | Barnyardgrass plant response rating [9, 25] | Plant response rating, Barnyardgrass (0 to 10 scale, 0 is no effect, 10 is complete control) [9, 26] | Barnyardgrass plant response rating [9, 27] | Barnyardgrass plant response rating [9, 28] | Barnyardgrass plant response rating [9, 30] | Plant response rating, Corn [10, 17] | Plant response rating, Corn [10, 18] | Corn plant response rating (0 to 10 scale) ([10]; Preemergence, Rate 125 g/ha) | Corn plant response rating ([10]; Rate 62 g/ha, Postemergence) | Plant response rating, Corn [10, 19] | Plant response rating, Soybean [11, 18] | Soybean plant response rating (0 to 10 scale) ([11]; Preemergence, Rate 125 g/ha) | Soybean plant response rating ([11]; Preemergence, Rate 250 g/ha) | Plant response rating, S. Flatsedge (0 to 10 scale, 0 is no effect, 10 is complete control) [12, 26] | S. Flatsedge plant response rating [12, 27] | S. Flatsedge plant response rating [12, 28] | S. Flatsedge plant response rating [12, 30] | Plant response rating, Sugarbeets [14, 18] | Sugarbeets plant response rating (0 to 10 scale) ([14]; Preemergence, Rate 125 g/ha) | Sugarbeets plant response rating ([14]; Rate 62 g/ha, Postemergence) | Plant response rating, Rape [15, 17] | Plant response rating, Rape [15, 18] | Rape plant response rating ([15]; Rate 62 g/ha, Postemergence) | Plant response rating, Nutsedge [16, 17] | Plant response rating, Nutsedge [16, 18] | Nutsedge plant response rating (0 to 10 scale) ([16]; Preemergence, Rate 125 g/ha) | Nutsedge plant response rating ([16]; Preemergence, Rate 250 g/ha) | Nutsedge plant response rating ([16]; Preemergence, Rate 500 g/ha) | Nutsedge plant response rating ([16]; Rate 62 g/ha, Postemergence) | Plant response rating, Nutsedge [16, 19]
3: Plant response rating, Redroot pigweed [7, 17] | Plant response rating, Ducksalad [8, 24] | Corn plant response rating ([10]; Preemergence, Rate 250 g/ha) | Soybean plant response rating ([11]; Rate 62 g/ha, Postemergence) | Plant response rating, Blackgrass [13, 18] | Blackgrass plant response rating [13, 22] | Plant response rating, Sugarbeets [14, 19]
6: Velvetleaf plant response rating ([5]; Preemergence, Rate 250 g/ha) | Corn plant response rating ([10]; Preemergence, Rate 500 g/ha) | Sugarbeets plant response rating ([14]; Preemergence, Rate 500 g/ha)

— patent US6737383B1, “Herbicidal oxadiazolidines” (priority 1999, dated 2004)
